For 24 compounds, IC50 results are on record in patent US20110105430A1, “PYRROLO [2,3-C] PYRIDINE DERIVATIVES AS P38 KINEASE INHIBITING AGENTS” (priority 2008, published 2011).

The target in one assay is T1, p38α (Homo sapiens, UniProt Q16539).
T1 construct: purchased Millipore
The experiment in a line: p38 kinase assay, p38-α with peptide substrate (Caliper LabChip). The class given is biochemical. On the procedure:
Alternatively, p38 kinase assays were performed in a reaction volume of 70 μL in a 384-well plate, at 30° for […] under the following conditions: 50 mM Hepes, pH 7.4, 10 mM MgCl2, 1 mg/ml FA Free BSA, 1 mM DTT, 10 μM ATP, 10 μM p38 peptide [Caliper Life Sciences FL-Peptide 8 (5-FAM-IPTSPITTTYFFFKKK-COOH)] and 5.7 nM p38-α (Millipore), or 14.3 nM unactivated MAPKAP kinase-2, 0.18 nM p38-α (Millipore) and 2 uM RSK peptide [Caliper Life Sciences FL-Peptide 11 (5-FAM-KKLNRTLSVA-COOH)]. Serial dilutions of compounds were added to each reaction in 700 nL DMSO. 700 nL of DMSO was added to the control wells of the reaction plate as the no inhibitor control for each inhibitor titration. The reaction was terminated by the addition of 15 μL of a 100 mM EDTA. Product formation was analyzed using the Caliper LabChip 3000. The Separation buffer contained 100 mM HEPES pH 7.5, 0.015% Brij-35, 2.5% Coating Reagent #3 (Caliper Life Sciences) and 10 mM EDTA. Calculation of the substrate product ratios are performed using the HTS Well Analyzer software provided by Caliper Life Sciences and the percent inhibition at each compound concentration is determined.

The test system of a further assay is TNF-α. Description: IC50 hWB (TNF-α release assay). The class given is cell-based. The conditions noted are these: Homo sapiens. On the procedure: Blood was obtained from healthy volunteers by venipuncture using sodium heparin as an anti-coagulant. Peripheral blood mononuclear cells (PBMCs) were isolated using Lymphocyte Separation Medium (ICN) according to manufacturers specifications. Isolated PBMCs were washed 3 times with FIBSS and diluted to a density of 2×10^6 cells/mL in RPMI+5% autologous human serum. 50 μL of the serial dilutions of inhibitor were added to wells of a 96-well tissue culture plate followed by addition of 100 μL of PBMCs and then 50 μL of RPMI complete medium containing 400 ng/mL LPS. A control well of cells without compound but with LPS (maximal stimulation control) and one without compound and without LPS (background control) were included in each titration. The cells were incubated for 16 hours in a humidified incubator at 37° C., 5% CO2. Supernatants were then harvested and TNF-α levels were quantified by immunoassay using commercial reagents (R&D, Inc).

T1 sequence (Q16539 whole entry): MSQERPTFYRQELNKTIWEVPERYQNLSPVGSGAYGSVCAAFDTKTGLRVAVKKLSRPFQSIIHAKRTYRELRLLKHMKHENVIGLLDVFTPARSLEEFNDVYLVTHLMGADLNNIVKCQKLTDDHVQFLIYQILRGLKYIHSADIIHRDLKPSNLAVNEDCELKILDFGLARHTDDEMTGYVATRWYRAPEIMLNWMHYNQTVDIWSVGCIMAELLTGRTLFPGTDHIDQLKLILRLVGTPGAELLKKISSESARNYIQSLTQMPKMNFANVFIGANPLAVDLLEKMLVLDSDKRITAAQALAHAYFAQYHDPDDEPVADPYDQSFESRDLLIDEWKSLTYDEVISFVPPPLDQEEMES

Take `Cc1cnc2nc(Cn3ccc4c(C(=O)c5c(F)cccc5F)c[nH]c4c3=O)[nH]c2c1` [Example 12, 3-(2,6-difluorobenzoyl)-6-[(6-methyl-3H-imidazo[4,5-b]pyridin-2-yl)methyl]-1,6-dihydro-7H-pyrrolo[2,3-c]pyridin-7-one]: the IC50 against p38α came out at 25 nM; in the assay with TNF-α, 142 nM.

As for `O=C(c1c(F)cc(F)cc1F)c1c[nH]c2c(=O)n(Cc3nc4ccccc4o3)ccc12` [Example 10, 6-(1,3-benzoxazol-2-ylmethyl)-3-(2,4,6-trifluorobenzoyl)-1,6-dihydro-7H-pyrrolo[2,3-c]pyridin-7-one], the results for the IC50 at p38α and in the assay on TNF-α were 40 nM and 1370 nM, respectively. As to `CNC(=O)c1ccn2cc(Cn3ccc4c(C(=O)c5c(F)cc(F)cc5F)c[nH]c4c3=O)nc2c1` [Example 25, N-methyl-2-{[7-oxo-3-(2,4,6-trifluorobenzoyl)-1,7-dihydro-6H-pyrrolo-[2,3-c]pyridin-6-yl]methyl}-imidazo[1,2-c]pyridine-7-carboxamide], on p38α, it took 1 nM to reach half-maximal inhibition (IC50). Consider `NC(=O)c1ccn2cc(Cn3ccc4c(C(=O)c5c(F)cc(F)cc5F)c[nH]c4c3=O)nc2c1` [Example 22, 2-{[7-oxo-3-(2,4,6-trifluorobenzoyl)-1,7-dihydro-6H-pyrrolo[2,3-c]pyridin-6-yl]methyl}imidazo[1,2-a]pyridine-7-carboxamide], for which the half-inhibitory concentration (IC50) against p38α is 1.3 nM. On to `O=C(c1c(F)cc(F)cc1F)c1c[nH]c2c(=O)n(Cc3nc4ccncc4[nH]3)ccc12` [Example 17, 6-(3H-imidazo[4,5-c]pyridin-2-ylmethyl)-3-(2,4,6-trifluorobenzoyl)-1,6-dihydro-7H-pyrrolo[2,3-c]pyridin-7-one], for which the IC50 against p38α came out at 13 nM.

`O=c1c2[nH]cc(Cc3c(F)cc(F)cc3F)c2ccn1Cc1nc2ncccc2[nH]1` [Example 29, 6-(1H-imidazo[4,5-b]pyridin-2-ylmethyl)-3-(2,4,6-trifluorobenzyl)-1,6-dihydro-7H-pyrrolo[2,3-c]pyridin-7-one]: the IC50 turned out to be 108 nM against p38α and 503 nM in the assay with TNF-α. On p38α, `O=c1c2[nH]cc(C(O)c3ccc(F)cc3F)c2ccn1Cc1cn2ccccc2n1` (stereo not drawn) [Example 28, 3-[(2,4-difluorophenyl)(hydroxy)methyl]-6-(imidazo[1,2-a]pyridin-2-ylmethyl)-1,6-dihydro-7H-pyrrolo[2,3-c]pyridin-7-one] gave an IC50 of 249 nM.

On to `Cc1cnc2nc(Cn3ccc4c(C(=O)c5c(F)cc(F)cc5F)c[nH]c4c3=O)[nH]c2c1` [Example 11, 6-[(6-methyl-3H-imidazo[4,5-b]pyridin-2-yl)methyl]-3-(2,4,6-trifluorobenzoyl)-1,6-dihydro-7 H-pyrrolo[2,3-c]pyridin-7-one], for which the IC50 turned out to be 14 nM at p38α and 39 nM in the assay on TNF-α.

As to `O=C(c1c(F)cc(F)cc1F)c1c[nH]c2c(=O)n(Cc3nc4ccccc4[nH]3)ccc12` [Example 1, 6-(1H-benzimidazol-2-ylmethyl)-3-(2,4,6-trifluorobenzoyl)-1,6-dihydro-7H-pyrrolo[2,3-c]pyridin-7-one], the values for the IC50 on p38α and in the assay with TNF-α were 45 nM and 461 nM, respectively. Take `CN(C)C(=O)c1ccn2cc(Cn3ccc4c(C(=O)c5c(F)cc(F)cc5F)c[nH]c4c3=O)nc2c1` [Example 24, N,N-dimethyl-2-{[7-oxo-3-(2,4,6-trifluorobenzoyl)-1,7-dihydro-6H-pyrrolo[2,3-c]pyridin-6-yl]methyl}imidazo[1,2-a]pyridine-7-carboxamide]: the figures for the IC50 against p38α and with TNF-α were 3.8 nM and 21 nM, respectively. Compound `O=C(O)c1ccn2cc(Cn3ccc4c(C(=O)c5c(F)cc(F)cc5F)c[nH]c4c3=O)nc2c1` [Example 23, 2-{[7-oxo-3-(2,4,6-trifluorobenzoyl)-1,7-dihydro-6H-pyrrolo[2,3-c]pyridin-6-yl]methyl}imidazo[1,2-a]pyridine-7-carboxylic acid] registered a concentration for half-maximal inhibition (IC50) against p38α of 2 nM.

For `Cc1ccc2nc(Cn3ccc4c(C(=O)c5c(F)cccc5F)c[nH]c4c3=O)cn2n1` [Example 9, 3-(2,6-difluorobenzoyl)-6-[(6-methylimidazo[1,2-b]pyridazin-2-yl)methyl]-1,6-dihydro-7H-pyrrolo[2,3-c]pyridin-7-one], the IC50 on p38α turned out to be 16 nM; with TNF-α it was 217 nM.

Regarding `O=C(c1c(F)cccc1F)c1c[nH]c2c(=O)n(Cc3nc4cccnc4[nH]3)ccc12` [Example 7, 3-(2,6-difluorobenzoyl)-6-(3H-imidazo[4,5-b]pyridin-2-ylmethyl)-1,6-dihydro-7H-pyrrolo[2,3-c]pyridin-7-one], the IC50 against p38α was found to be 38 nM; with TNF-α, 248 nM. For `O=C(c1c(F)cncc1F)c1c[nH]c2c(=O)n(Cc3cc4ccccn4n3)ccc12` [Example 13, 3-(3,5-difluoroisonicotinoyl)-6-(pyrazolo[1,5-c]pyridin-2-ylmethyl)-1,6-dihydro-7H-pyrrolo[2,3-c]pyridin-7-one], the values for the IC50 on p38α and in the assay on TNF-α were 29 nM and 1520 nM, respectively. Taken in the same sequence, the figures for `O=C(c1c(F)cccc1F)c1c[nH]c2c(=O)n(Cc3nc4ncc(C(F)(F)F)cc4[nH]3)ccc12` [Example 21, 3-(2,6-difluorobenzoyl)-6-{[6-(trifluoromethyl)-3H-imidazo[4,5-b]pyridin-2-yl]methyl}-1,6-dihydro-7H-pyrrolo[2,3-c]pyridin-7-one] were 38 nM and 2060 nM. As to `O=C(c1c(F)cc(F)cc1F)c1c[nH]c2c(=O)n(Cc3nc4cccnc4[nH]3)ccc12` [Example 6, 6-(3H-imidazo[4,5-b]pyridin-2-ylmethyl)-3-(2,4,6-trifluorobenzoyl)-1,6-dihydro-7H-pyrrolo[2,3-c]pyridin-7-one], the figures for the half-inhibitory concentration (IC50) on p38α and in the assay with TNF-α were 18 nM and 84 nM, respectively.

On to `O=C(c1c(F)cc(F)cc1F)c1c[nH]c2c(=O)n(Cc3cn4cccnc4n3)ccc12` [Example 5, 6-(imidazo[1,2-a]pyrimidin-2-ylmethyl)-3-(2,4,6-trifluorobenzoyl)-1,6-dihydro-7H-pyrrolo[2,3-c]pyridin-7-one], for which the results for the IC50 against p38α and in the assay with TNF-α were 5.3 nM and 88 nM, respectively.

In the case of `O=C(c1c(F)cc(F)cc1F)c1c[nH]c2c(=O)n(Cc3nc4cccc(F)c4[nH]3)ccc12` [Example 2, 6-[(4-fluoro-1H-benzimidazol-2-yl)methyl]-3-(2,4,6-trifluorobenzoyl)-1,6-dihydro-7H-pyrrolo[2,3-c]pyridin-7-one], the IC50 at p38α is 27 nM; in the assay on TNF-α it was 128 nM.

For `O=C(NCC(F)(F)F)c1cnc2nc(Cn3ccc4c(C(=O)c5c(F)cc(F)cc5F)c[nH]c4c3=O)[nH]c2c1` [Example 15, 2-{[7-oxo-3-(2,4,6-trifluorobenzoyl)-1,7-dihydro-6H-pyrrolo[2,3-c]pyridin-6-yl]methyl}-N-(2,2,2-trifluoroethyl)-3H-imidazo[4,5-b]pyridine-6-carboxamide], the 50% inhibitory concentration (IC50) at p38α is 8.6 nM; in the assay on TNF-α, 103 nM. For `O=C(c1c(F)cc(F)cc1F)c1c[nH]c2c(=O)n(Cc3nc4ncc(C(=O)N5CCOCC5)cc4[nH]3)ccc12` [Example 16, 6-{[6-(morpholin-4-ylcarbonyl)-1H-imidazo[4,5-b]pyridin-2-yl]methyl}-3-(2,4,6-trifluorobenzoyl)-1,6-dihydro-7H-pyrrolo[2,3-c]pyridin-7-one], the concentration for half-maximal inhibition (IC50) amounted to 19 nM on p38α and 217 nM with TNF-α. On to `O=C(c1c(F)cc(F)cc1F)c1c[nH]c2c(=O)n(Cc3nc4ccc(F)c(F)c4[nH]3)ccc12` [Example 3, 6-[(4,5-difluoro-1H-benzimidazol-2-yl)methyl]-3-(2,4,6-trifluorobenzoyl)-1,6-dihydro-7H-pyrrolo[2,3-c]pyridin-7-one], for which the IC50 on p38α is 23 nM; in the assay with TNF-α, 128 nM. Taken in the same sequence, the figures for `O=C(c1ccc(F)cc1F)c1c[nH]c2c(=O)n(Cc3cn4ccccc4n3)ccc12` [Example 20, 3-(2,4-difluorobenzoyl)-6-(imidazo[1,2-a]pyridin-2-ylmethyl)-1,6-dihydro-7H-pyrrolo[2,3-c]pyridin-7-one] were 18 nM and 162 nM.

Turning to `O=C(c1c(F)cc(F)cc1F)c1c[nH]c2c(=O)n(Cc3nc4ncc(Br)cc4[nH]3)ccc12` [Example 8, 6-[(6-bromo-3H-imidazo[4,5-b]pyridin-2-yl)methyl]-3-(2,4,6-trifluorobenzoyl)-1,6-dihydro-7H-pyrrolo[2,3-c]pyridin-7-one], the half-maximal inhibitory concentration (IC50) is 24 nM on p38α and 253 nM in the assay with TNF-α. The compound `CNC(=O)c1ccc2nc(Cn3ccc4c(C(=O)c5c(F)cc(F)cc5F)c[nH]c4c3=O)[nH]c2c1` [Example 27, N-methyl-2-{[7-oxo-3-(2,4,6-trifluorobenzoyl)-1,7-dihydro-6H-pyrrolo[2,3-c]pyridin-6-yl]methyl}-1H-benzimidazole-5-carboxamide] had an IC50 against p38α of 3 nM.
